Laboratory results: patent US10717734B2, “Indole and azaindole haloallylamine derivative inhibitors of lysyl oxidases and uses thereof” (PHARMAXIS LTD., priority 2016, dated 2020)
Where a name gives a salt, the structure may show the parent alone.

Key:
Type in all cases: biochemical
[1] = target: Human recombinant SSAO/VAP-1 (Homo sapiens (Human), UniProt Q16853); experiment: Human recombinant SSAO/VAP-1 amine oxidase inhibition; conditions: 30 min preincubation at 37° C., 600 μM benzylamine
Experimental: Method to Determine the Ability of Compounds of Formula I to Inhibit Human Recombinant SSAO/VAP-1
Human recombinant SSAO/VAP-1 amine oxidase activity was determined using the coupled colorimetric method as described for monoamine oxidase, copper-containing amine oxidases and related enzymes (Holt A. and Palcic M., A peroxidase-coupled continuous absorbance plate-reader assay for flavin monoamine oxidases, copper-containing amine oxidases and related enzymes. Nat Protoc 2006; 1: 2498-2505). Briefly, a cloned cDNA template corresponding to residues 34-763 of human SSAO/VAP-1, and incorporating a mouse Ig kappa (κ) signal sequence, N-terminal flag epitope tag and tobacco etch virus (TEV) cleavage site, was assembled in a mammalian expression vector (pLO-CMV) by Geneart AG. This vector containing human SSAO/VAP-1 residues was transfected into CHO-K1 glycosylation mutant cell line, Lec 8. A clone stably expressing human SSAO/VAP-1 was isolated and cultured in large scale. Active human SSAO/VAP-1 was purified and recovered using immunoaffinity chromatography. This was used as the source for SSAO/VAP-1 activity. A high-throughput colorimetric assay was developed using either 96 or 384 well format. Briefly, in a standard 96 well plate assay 50 μL of purified human SSAO/VAP-1 (0.25 μg/mL) in 0.1 M sodium phosphate buffer (pH 7.4) was added into each well. Test compounds were dissolved in DMSO and tested in a Concentration Response Curve (CRC) with 4-11 data points, typically in the micromolar or nanomolar range after incubation with human SSAO/VAP-1 for 30 min at 37° C. After 30 min incubation, 50 μL of the reaction mixture containing 600 μM benzylamine (Sigma Aldrich), 120 μM Amplex Red (Sigma Aldrich) and 1.5 U/mL horseradish peroxidase (Sigma Aldrich) prepared in 0.1 M sodium phosphate buffer (pH 7.4) were added to the corresponding well. The fluorescence unit (RFU) was read every 2.5 min for 30 min at 37° C. excitation 565 nm and emission 590 (Optima; BMG labtech). The slope of the kinetics for each well was calculated using MARS data analysis software (BMG labtech) and this value was used to deduce the IC50 value (Dotmatics).

[2] = target: Human LOXL2 (Homo sapiens (Human), UniProt Q9Y4K0); experiment: LOXL2 inhibition, peroxidase-coupled Amplex Red amine oxidase assay; conditions: 30 min preincubation at 37° C., putrescine substrate
Chain of Human LOXL2 (Q9Y4K0 26-774): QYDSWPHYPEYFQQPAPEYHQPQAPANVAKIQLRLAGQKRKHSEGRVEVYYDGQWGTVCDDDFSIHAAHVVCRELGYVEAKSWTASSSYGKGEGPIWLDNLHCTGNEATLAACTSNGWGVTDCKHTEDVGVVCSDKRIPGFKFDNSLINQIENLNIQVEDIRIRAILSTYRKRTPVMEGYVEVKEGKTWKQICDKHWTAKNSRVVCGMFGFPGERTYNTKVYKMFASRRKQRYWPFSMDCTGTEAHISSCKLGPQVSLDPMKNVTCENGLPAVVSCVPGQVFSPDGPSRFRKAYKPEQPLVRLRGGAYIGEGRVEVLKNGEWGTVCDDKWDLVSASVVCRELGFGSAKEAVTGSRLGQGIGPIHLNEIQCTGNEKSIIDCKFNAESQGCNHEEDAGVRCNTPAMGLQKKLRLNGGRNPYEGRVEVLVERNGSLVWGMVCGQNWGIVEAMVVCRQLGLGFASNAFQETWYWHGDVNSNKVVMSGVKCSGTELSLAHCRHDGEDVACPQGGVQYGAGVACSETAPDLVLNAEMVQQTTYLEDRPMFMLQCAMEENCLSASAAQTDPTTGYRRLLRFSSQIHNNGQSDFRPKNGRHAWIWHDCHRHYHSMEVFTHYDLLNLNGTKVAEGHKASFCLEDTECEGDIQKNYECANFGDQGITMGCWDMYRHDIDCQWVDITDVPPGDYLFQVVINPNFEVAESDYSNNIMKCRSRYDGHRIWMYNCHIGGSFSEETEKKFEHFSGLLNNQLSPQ
Description: (§1) Method to Determine the Ability of Compounds of the Invention to Inhibit LOX and LOXL1-4 from Different Sources
(§2) Lysyl oxidase (LOX) is an extracellular copper dependent enzyme which oxidizes peptidyl lysine and hydroxylysine residues in collagen and lysine residues in elastin to produce peptidyl alpha-aminoadipic-delta-semialdehydes. […] There are five LOX family members; these are LOX, LOXL1, LOXL2, LOXL3 and LOXL4. LOX and LOXL family members can be acquired as recombinant active proteins from commercial sources, or extracted from animal tissues like bovine aorta, tendons, pig skin; or prepared from cell cultures. The inhibitory effects of the compounds of the present invention were tested against the given LOX-LOXL preparation using a high-throughput coupled colorimetric method (Holt A. and Palcic M., A peroxidase-coupled continuous absorbance plate-reader assay for flavin monoamine oxidases, copper-containing amine oxidases and related enzymes. Nat. Protoc. 2006; 1: 2498-2505). The assay was developed using either 384 or 96 well format. Briefly, in a standard 384 well plate assay 25 μL of a dilution of any of the isoenzymes and orthologues in 1.2 M urea, 50 mM sodium borate buffer (pH 8.2) were added into each well in the presence of 1 μM mofegiline and 0.5 mM pargyline (to inhibit SSAO and MAO-B and MAO-A, respectively). Test compounds were dissolved in DMSO and tested in a Concentration Response Curve (CRC) with 11 data points, typically in the micromolar or nanomolar range after incubation with the enzyme for 30 min at 37° C. Twenty five μL of a reaction mixture containing twice the KM concentration of putrescine (Sigma Aldrich, e.g. 20 mM for LOX, or 10 mM for LOXL2 and LOXL3), 120 μM Amplex Red (Sigma Aldrich) and 1.5 U/mL horseradish peroxidase (Sigma Aldrich) prepared in 1.2 M urea, 50 mM sodium borate buffer (pH 8.2) were then added to the corresponding wells. The above volumes were doubled in the case of 96 wells plate. The fluorescence (RFU) was read every 2.5 min for 30 min at a range of temperatures from 37° to 45° C., excitation 565 nm and emission 590 (Optima; BMG labtech). The slope of the kinetics for each well was calculated using MARS data analysis software (BMG labtech) and this value was used to deduce the IC50 value (Dotmatics).

[3] = target: Recombinant human MAO-B (Homo sapiens (Human), UniProt P27338); experiment: Human recombinant MAO-B inhibition; conditions: benzylamine 100 μM
Chain of Recombinant human MAO-B (P27338 whole entry): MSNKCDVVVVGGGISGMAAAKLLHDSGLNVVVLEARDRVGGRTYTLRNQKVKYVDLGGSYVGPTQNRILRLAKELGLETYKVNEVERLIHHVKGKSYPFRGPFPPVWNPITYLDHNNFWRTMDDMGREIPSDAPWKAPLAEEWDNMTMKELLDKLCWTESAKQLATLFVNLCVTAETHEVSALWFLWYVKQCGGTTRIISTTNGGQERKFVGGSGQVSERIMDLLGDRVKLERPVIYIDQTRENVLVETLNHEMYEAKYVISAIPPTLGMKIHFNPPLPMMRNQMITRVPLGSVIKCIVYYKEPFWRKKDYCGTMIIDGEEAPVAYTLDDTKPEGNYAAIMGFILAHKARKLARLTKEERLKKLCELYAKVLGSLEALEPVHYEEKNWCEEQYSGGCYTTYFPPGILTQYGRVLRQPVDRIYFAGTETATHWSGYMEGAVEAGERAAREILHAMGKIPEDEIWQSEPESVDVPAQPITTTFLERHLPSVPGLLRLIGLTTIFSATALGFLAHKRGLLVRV
Experimental: Method to Determine the Ability of Compounds of Formula I to Inhibit Human Recombinant MAO-B
The specificity of the compounds of this invention was tested by determining their ability to inhibit MAO-B activities in vitro. Recombinant human MAO-B (0.06 mg/mL; Sigma Aldrich) was used as source of MAO-B enzyme activities. The assay was performed in a similar way as for human SSAO/VAP-1 (Example 36) except, the substrate benzylamine was used at 100 μM.

[4] = target: Bovine LOX (Bos taurus (Bovine), UniProt P33072); experiment: LOX inhibition, peroxidase-coupled Amplex Red amine oxidase assay; conditions: 30 min preincubation at 37° C., putrescine substrate
Chain of Bovine LOX (P33072 170-418): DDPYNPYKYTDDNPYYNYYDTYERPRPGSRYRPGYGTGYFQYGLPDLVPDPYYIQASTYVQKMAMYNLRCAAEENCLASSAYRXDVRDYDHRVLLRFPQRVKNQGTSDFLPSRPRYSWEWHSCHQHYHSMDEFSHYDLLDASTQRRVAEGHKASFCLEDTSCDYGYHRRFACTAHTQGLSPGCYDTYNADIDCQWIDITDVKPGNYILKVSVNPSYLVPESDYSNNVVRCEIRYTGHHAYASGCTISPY
Description: as §1
as §2, with “Test compounds were dissolved in DMSO and tested in a Concentration Response Curve (CRC) with 11 data points, typically in the micromolar or nanomolar range after incubation with the enzyme for 30 min at 37° C.” left out

Chain of Human recombinant SSAO/VAP-1 (Q16853 34-763): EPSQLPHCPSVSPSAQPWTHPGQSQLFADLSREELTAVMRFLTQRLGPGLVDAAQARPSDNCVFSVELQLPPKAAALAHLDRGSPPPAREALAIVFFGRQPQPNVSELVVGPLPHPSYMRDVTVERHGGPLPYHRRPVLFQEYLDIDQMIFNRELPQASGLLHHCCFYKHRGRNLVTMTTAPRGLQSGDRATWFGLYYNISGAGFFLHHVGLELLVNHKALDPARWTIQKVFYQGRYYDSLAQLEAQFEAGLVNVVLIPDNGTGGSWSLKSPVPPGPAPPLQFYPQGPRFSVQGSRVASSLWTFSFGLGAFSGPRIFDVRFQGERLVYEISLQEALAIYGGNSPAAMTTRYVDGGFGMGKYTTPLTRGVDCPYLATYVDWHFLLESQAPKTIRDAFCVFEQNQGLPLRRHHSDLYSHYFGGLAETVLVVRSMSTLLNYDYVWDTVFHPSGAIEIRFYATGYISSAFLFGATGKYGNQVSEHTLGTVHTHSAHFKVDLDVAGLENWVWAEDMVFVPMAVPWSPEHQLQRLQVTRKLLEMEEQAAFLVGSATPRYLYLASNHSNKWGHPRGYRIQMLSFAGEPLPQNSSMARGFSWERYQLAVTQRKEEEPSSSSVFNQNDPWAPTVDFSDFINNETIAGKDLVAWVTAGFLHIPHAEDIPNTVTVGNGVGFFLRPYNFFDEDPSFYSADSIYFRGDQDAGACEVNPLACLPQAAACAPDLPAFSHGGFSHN

For Cc1cc2c(cn1)c(Cc1ccc(S(C)(=O)=O)cc1)c(C)n2C/C(F)=C/CN [Compound 36, (Z)-4-(2,6-dimethyl-3-(4-(methylsulfonyl)benzyl)-1H-pyrrolo[3,2-c]pyridin-1-yl)-3-fluorobut-2-en-1-amine dihydrochloride], the IC50 [1] was > 3 µM, the IC50 [2] was < 0.3 µM and the IC50 [3] was > 3 µM. For the same compound, the IC50 [4] was > 0.3 µM.
Cc1cc2c(nc1O)c(Cc1ccc(S(=O)(=O)N(C)C)cc1)c(C)n2C/C(F)=C/CN [Compound 19, (Z)-4-((1-(4-amino-2-fluorobut-2-en-1-yl)-5-hydroxy-2,6-dimethyl-1H-pyrrolo[3,2-b]pyridin-3-yl)methyl)-N,N-dimethylbenzenesulfonamide dihydrochloride] was tested, and the IC50 [1] was > 3 µM, the IC50 [2] was < 0.3 µM and the IC50 [3] was > 3 µM. For the same compound, the IC50 [4] was > 0.3 µM.
With Cc1c(Cc2ccc(S(=O)(=O)N(C)C)cc2)c2ccccc2n1C/C(F)=C/CN [Compound 26, (Z)-4-((1-(4-amino-2-fluorobut-2-en-1-yl)-2-methyl-1H-indol-3-yl)methyl)-N,N-dimethylbenzene-sulfonamide hydrochloride] the IC50 [1] was > 3 µM, the IC50 [2] was < 0.3 µM and the IC50 [3] was > 3 µM. The IC50 [4] was > 0.3 µM.
For CC(C)c1c(Cc2ccc(S(=O)(=O)C(C)C)nc2)c2ncccc2n1C/C(F)=C/CN [Compound 41, (Z)-3-fluoro-4-(2-isopropyl-3-((6-(isopropylsulfonyl)pyridin-3-yl)methyl)-1H-pyrrolo[3,2-b]pyridin-1-yl)but-2-en-1-amine hydrochloride], the IC50 [1] was > 3 µM, the IC50 [2] was < 0.3 µM and the IC50 [3] was > 3 µM. The IC50 [4] was > 0.3 µM.
COC(=O)c1ccc2c(c1)c(Cc1ccc(S(=O)(=O)N(C)C)cc1)c(C)n2C/C(F)=C/CN [Compound 2, Methyl (Z)-1-(4-amino-2-fluorobut-2-en-1-yl)-3-(4-(N,N-dimethylsulfamoyl)benzyl)-2-methyl-1H-indole-5-carboxylate hydrochloride] was tested, and the IC50 [1] was > 3 µM, the IC50 [2] was < 0.3 µM and the IC50 [3] was > 3 µM. The IC50 [4] was > 0.3 µM.
With Cc1ccc2c(n1)c(Cc1ccc(S(C)(=O)=O)cc1)c(C)n2C/C(F)=C/CN [Compound 12, (Z)-4-(2,5-dimethyl-3-(4-(methylsulfonyl)benzyl)-1H-pyrrolo[3,2-b]pyridin-1-yl)-3-fluorobut-2-en-1-amine dihydrochloride] the IC50 [1] was > 3 µM, the IC50 [2] was < 0.3 µM and the IC50 [3] was > 3 µM. For the same compound, the IC50 [4] was > 0.3 µM.
CC(C)c1c(Cc2ccc(S(C)(=O)=O)cc2)c2ncccc2n1C/C(F)=C/CN [Compound 33, (Z)-3-fluoro-4-(2-isopropyl-3-(4-(methylsulfonyl)benzyl)-1H-pyrrolo[3,2-b]pyridin-1-yl)but-2-en-1-amine dihydrochloride] was tested, and the IC50 [1] was > 3 µM, the IC50 [2] was < 0.3 µM and the IC50 [3] was > 3 µM. For the same compound, the IC50 [4] was > 0.3 µM.
Cc1c(Cc2ccc(S(C)(=O)=O)c(Cl)c2)c2ncccc2n1C/C(F)=C/CN [Compound 35, (Z)-4-(3-(3-chloro-4-(methylsulfonyl)benzyl)-2-methyl-1H-pyrrolo[3,2-b]pyridin-1-yl)-3-fluorobut-2-en-1-amine dihydrochloride] was tested, and the IC50 [1] was > 3 µM, the IC50 [2] was < 0.3 µM and the IC50 [3] was > 3 µM. The IC50 [4] was > 0.3 µM.
For CN(C)C(=O)c1c(Cc2ccc(S(=O)(=O)N(C)C)cc2)c2ccccc2n1C/C(F)=C/CN [Compound 5, (Z)-1-(4-amino-2-fluorobut-2-en-1-yl)-3-(4-(N,N-dimethylsulfamoyl)benzyl)-N,N-dimethyl-1H-indole-2-carboxamide hydrochloride], the IC50 [1] was > 3 µM, the IC50 [2] was < 0.3 µM and the IC50 [3] was > 3 µM. The IC50 [4] was > 0.3 µM.
Cc1ccc2c(n1)c(Cc1ccc(S(=O)(=O)N(C)C)cn1)c(C)n2C/C(F)=C/CN [Compound 15, (Z)-6-((1-(4-amino-2-fluorobut-2-en-1-yl)-2,5-dimethyl-1H-pyrrolo[3,2-b]pyridin-3-yl)methyl)-N,N-dimethylpyridine-3-sulfonamide trihydrochloride] was tested, and the IC50 [1] was > 3 µM, the IC50 [2] was < 0.3 µM and the IC50 [3] was > 3 µM. For the same compound, the IC50 [4] was > 0.3 µM.
In the case of Cc1ccc2c(n1)c(Cc1ccc(S(C)(=O)=O)nc1)c(C)n2C/C(F)=C/CN [Compound 13, (Z)-4-(2,5-dimethyl-3-((6-(methylsulfonyl)pyridin-3-yl)methyl)-1H-pyrrolo[3,2-b]pyridin-1-yl)-3-fluorobut-2-en-1-amine trihydrochloride], the IC50 [1] is reported as > 3 µM, the IC50 [2] is reported as < 0.3 µM and the IC50 [3] is reported as > 3 µM. The IC50 [4] was > 0.3 µM.
For Cc1ccc2c(n1)c(Cc1ccc(S(=O)(=O)N(C)C)nc1)c(C)n2C/C(F)=C/CN [Compound 16, (Z)-5-((1-(4-amino-2-fluorobut-2-en-1-yl)-2,5-dimethyl-1H-pyrrolo[3,2-b]pyridin-3-yl)methyl)-N,N-dimethylpyridine-2-sulfonamide trihydrochloride], the IC50 [1] was > 3 µM, the IC50 [2] was < 0.3 µM and the IC50 [3] was > 3 µM. For the same compound, the IC50 [4] was > 0.3 µM.
Cc1c(Cc2ccc(S(=O)(=O)N(C)C)cc2)c2ncc(F)cc2n1C/C(F)=C/CN [Compound 24, (Z)-4-((1-(4-amino-2-fluorobut-2-en-1-yl)-6-fluoro-2-methyl-1H-pyrrolo[3,2-b]pyridin-3-yl)methyl)-N,N-dimethylbenzenesulfonamide dihydrochloride] was tested, and the IC50 [1] was > 3 µM, the IC50 [2] was < 0.3 µM and the IC50 [3] was > 3 µM. The IC50 [4] was > 0.3 µM.
